Earlier results in patent US20070037740A1, “Combination therapy with glatiramer acetate and alphacalcidol for the treatment of multiple sclerosis” (priority 2003, published 2007).

Tests used:
[1] = test system: murine experimental autoimmune encephalomyelitis (EAE)
[2] = daily subcutaneous injections, 20 mg/injection

| Compound | progression of murine EAE ([1]; administered after the induction of EAE) | development of murine EAE ([1]; mouse, in vivo) | appearance of "black holes" (multiple sclerosis; [2]) | appearance of new lesions by magnetic resonance imaging (MRI) (multiple sclerosis; [2]) | progression of disability (multiple sclerosis; [2]) | relapse rates (multiple sclerosis; [2]) | effective in treating multiple sclerosis (MS) (multiple sclerosis; in vivo) |
| --- | --- | --- | --- | --- | --- | --- | --- |
| C=C1/C(=C\C=C2/CCC[C@]3(C)[C@@H]([C@H](C)CCCC(C)(C)O)CC[C@@H]23)C[C@@H](O)C[C@@H]1O [1α,25-dihydroxycholecalciferol] | prevents the progression | prevents the development |  |  |  |  |  |
| L-glutamic acid polymer with L-alanine, L-lysine and L-tyrosine, acetate (salt) [glatiramer acetate] |  |  | reduce | reduce | reduce | reduce | effective |
